Experiments:
MRONJ [1] = settings: oral alendronate users, 208 patients; cited from earlier work
MRONJ [2] = settings: out of 24 patients treated with 0.12% chlorhexidine; cited from earlier work
[3] = test system: capillary neoangiogenesis; settings: cited from earlier work
[4] = in the glycerin gels; cited from earlier work
[5] = test system: oral mucosal cells (human gingival fibroblasts and keratinocytes); settings: direct application, in vitro; cited from earlier work
MRONJ lesions = test: Clinical observation of MRONJ patients (Example 1); format: in vivo, human; settings: one patient on intravenous zoledronate, multiple myeloma; lesion smoothed, antibiotic regimen; observed a little over a year

NCCCC(O)(P(=O)(O)O)P(=O)(O)O [alendronate]
MRONJ prevalence rate (MRONJ [1]): 4%

[H]/N=C(\N/C(=N/[H])NCCCCCCNC(=N)NC(=N)Nc1ccc(Cl)cc1)Nc1ccc(Cl)cc1 [chlorhexidine]
patients who experienced MRONJ progression (MRONJ [2]): 13 patients | patients who experienced MRONJ resolution (MRONJ [2]): 3 patients | patients who experienced no change in ONJ status (MRONJ [2]): 8 patients

NCCC(O)(P(=O)(O)O)P(=O)(O)O [pamidronate]
effect on new formation of capillaries from blood vessels (capillary neoangiogenesis) [3]: inhibit the new formation of capillaries from blood vessels

[F][Sn][F] [stannous fluoride]
stability [4]: relatively stable

O=P(O)(O)C(O)(Cn1ccnc1)P(=O)(O)O [zoledronic acid]
effect on the life of oral mucosal cells [5]: deleterious effect on the life of these cells

Augmentin
outcome of bone lesion (MRONJ lesions): continued to increase in size and did not heal

Reference: patent publication US20210177893A1, “Composition and method for treating and healing Medication-Related Osteonecrosis of the Jaw (MRONJ)” (priority 2019, published 2021)
